{"source": "patent US6355620B1", "about": "“C-2 modified erythromycin derivatives” (Abbott Laboratories, priority 1999, dated 2002)", "assay_in_all_cases": "In vitro antibacterial activity, agar dilution MIC", "assay_type_in_all_cases": "cell-based", "key": {"[1]": {"system": "Micrococcusluteus ATCC 4698", "conditions": "code PP, BHI agar, 35-37° C., 20 to 24 hours, unit assumed", "protocol": "(§1) Representative compounds of the present invention were assayed in vitro for antibacterial activity as follows: Twelve petri dishes containing successive aqueous dilutions of the test compound mixed with 10 mL of sterilized Brain Heart Infusion (BHI) agar (Difco 0418-01-5) were prepared. Each plate was inoculated with 1:100 (or 1:10 for slow-growing strains, such as Micrococcus and Streptococcus) dilutions of up to 32 different microorganisms, using a Steers replicator block. The inoculated plates were incubated at 35-37° C. for 20 to 24 hours. In addition, a control plate, using BHI agar containing no test compound, was prepared and incubated at the beginning and end of each test.\n(§2) An additional plate containing a compound having known susceptibility patterns for the organisms being tested and belonging to the same antibiotic class as the test compound was also prepared and incubated as a further control, as well as to provide test-to-test comparability.\n(§3) After incubation, each plate was visually inspected. The minimum inhibitory concentration (MIC) was defined as the lowest concentration of drug yielding no growth, a slight haze, or sparsely isolated colonies on the inoculum spot as compared to the growth control."}, "[2]": {"system": "Mycobacterium smegmatis ATCC 114", "conditions": "code UU, BHI agar, 35-37° C., 20 to 24 hours, unit assumed", "protocol": "as §1, §2, §3"}, "[3]": {"system": "Enterococcusfaecium ATCC X043", "conditions": "code II, BHI agar, 35-37° C., 20 to 24 hours, unit assumed", "protocol": "as §1, §2, §3"}, "[4]": {"system": "Micrococcusluteus ATCC 9341", "conditions": "code OO, BHI agar, 35-37° C., 20 to 24 hours, unit assumed", "protocol": "as §1, §2, §3"}, "[5]": {"system": "Staphylococcus aureus A-5177", "conditions": "code BB, BHI agar, 35-37° C., 20 to 24 hours, unit assumed", "protocol": "as §1, §2, §3"}, "[6]": {"system": "Haemophilislnfluenzae DILL AMP R", "conditions": "code WW, BHI agar, 35-37° C., 20 to 24 hours, unit assumed", "protocol": "as §1, §2, §3"}, "[7]": {"system": "Staphylococcus aureus NCTC 10649M", "conditions": "code EE, BHI agar, 35-37° C., 20 to 24 hours, unit assumed", "protocol": "as §1, §2, §3"}, "[8]": {"system": "Streptococcus pyogenes EES61", "conditions": "code LL, BHI agar, 35-37° C., 20 to 24 hours, unit assumed", "protocol": "as §1, §2, §3"}, "Escherichiacoli JUHL": {"system": "Escherichiacoli JUHL", "conditions": "code QQ, BHI agar, 35-37° C., 20 to 24 hours, unit assumed", "protocol": "as §1, §2, §3"}, "[9]": {"system": "Streptococcus Pneumonia ATCC 6303", "conditions": "code XX, BHI agar, 35-37° C., 20 to 24 hours, unit assumed", "protocol": "as §1, §2, §3"}, "[10]": {"system": "Nocardia Asteroides ATCC 99700", "conditions": "code VV, BHI agar, 35-37° C., 20 to 24 hours, unit assumed", "protocol": "as §1, §2, §3"}, "[11]": {"system": "Staphylococcus aureus ATCC 6538P", "conditions": "code AA, BHI agar, 35-37° C., 20 to 24 hours, unit assumed", "protocol": "as §1, §2, §3"}, "[12]": {"system": "Streptococcus Pneumonia GYR 1171", "conditions": "code YY, BHI agar, 35-37° C., 20 to 24 hours, unit assumed", "protocol": "as §1, §2, §3"}, "[13]": {"system": "Streptococcus bovis A-5169", "conditions": "code JJ, BHI agar, 35-37° C., 20 to 24 hours, unit assumed", "protocol": "as §1, §2, §3"}, "Candida albicans CCH 442": {"system": "Candida albicans CCH 442", "conditions": "code TT, BHI agar, 35-37° C., 20 to 24 hours, unit assumed", "protocol": "as §1, §2, §3"}, "[14]": {"system": "Streptococcus pyogenes PIU 2548", "conditions": "code NN, BHI agar, 35-37° C., 20 to 24 hours, unit assumed", "protocol": "as §1, §2, §3"}, "[15]": {"system": "Staphylococcus aureus CMX 642A", "conditions": "code DD, BHI agar, 35-37° C., 20 to 24 hours, unit assumed", "protocol": "as §1, §2, §3"}, "[16]": {"system": "Streptococcus Pneumonia 5649", "conditions": "code ZZA, BHI agar, 35-37° C., 20 to 24 hours, unit assumed", "protocol": "as §1, §2, §3"}, "[17]": {"system": "Streptococcus Pneumonia 5979", "conditions": "code ZZ, BHI agar, 35-37° C., 20 to 24 hours, unit assumed", "protocol": "as §1, §2, §3"}, "[18]": {"system": "Staphylococcus aureus A-5278", "conditions": "code CC, BHI agar, 35-37° C., 20 to 24 hours, unit assumed", "protocol": "as §1, §2, §3"}, "[19]": {"system": "Streptococcus pyogenes 930", "conditions": "code MM, BHI agar, 35-37° C., 20 to 24 hours, unit assumed", "protocol": "as §1, §2, §3"}, "[20]": {"system": "Streptococcus agalactiae CMX 508", "conditions": "code KK, BHI agar, 35-37° C., 20 to 24 hours, unit assumed", "protocol": "as §1, §2, §3"}, "[21]": {"system": "Staphylococcus aureus CMX 553", "conditions": "code FF, BHI agar, 35-37° C., 20 to 24 hours, unit assumed", "protocol": "as §1, §2, §3"}, "Escherichiacoli SS": {"system": "Escherichiacoli SS", "conditions": "code RR, BHI agar, 35-37° C., 20 to 24 hours, unit assumed", "protocol": "as §1, §2, §3"}, "[22]": {"system": "Staphylococcus epidermidis 3519", "conditions": "code HH, BHI agar, 35-37° C., 20 to 24 hours, unit assumed", "protocol": "as §1, §2, §3"}, "Escherichiacoli DC-2": {"system": "Escherichiacoli DC-2", "conditions": "code SS, BHI agar, 35-37° C., 20 to 24 hours, unit assumed", "protocol": "as §1, §2, §3"}, "[23]": {"system": "Staphylococcus aureus 1775", "conditions": "code GG, BHI agar, 35-37° C., 20 to 24 hours, unit assumed", "protocol": "as §1, §2, §3"}}}
{"smiles": "C#CCOC1(C)CC(C)C(=O)C(C)C2NC(=O)OC2(C)C(CC)OC(=O)C(C)(CC=Cc2ccccc2)C(=O)C(C)C1OC1OC(C)CC(N(C)C)C1O", "note": "(stereo not drawn) [Example 9, Compound of formula (II): R^a is —CH2C═CH, R^b is H, Y and Z together are O, T is —NH—, R is —CH2CH═CH-(phenyl)]", "values": [{"measurement": "Antibacterial Activity (MIC)", "setting": "[1]", "result": 3.1, "unit": "µg/mL"}, {"measurement": "Antibacterial Activity (MIC)", "setting": "[2]", "result": 12.5, "unit": "µg/mL"}, {"measurement": "Antibacterial Activity (MIC)", "setting": "[3]", "result": 3.1, "unit": "µg/mL"}, {"measurement": "Antibacterial Activity (MIC)", "setting": "[4]", "result": 1.56, "unit": "µg/mL"}, {"measurement": "Antibacterial Activity (MIC)", "setting": "[5]", "result": 3.1, "unit": "µg/mL"}, {"measurement": "Antibacterial Activity (MIC)", "setting": "[6]", "result": "> 64", "unit": "µg/mL"}, {"measurement": "Antibacterial Activity (MIC)", "setting": "[7]", "result": 12.5, "unit": "µg/mL"}, {"measurement": "Antibacterial Activity (MIC)", "setting": "[8]", "result": 1.56, "unit": "µg/mL"}, {"measurement": "Antibacterial Activity (MIC)", "setting": "Escherichiacoli JUHL", "result": "> 100", "unit": "µg/mL"}, {"measurement": "Antibacterial Activity (MIC)", "setting": "[9]", "result": 1, "unit": "µg/mL"}, {"measurement": "Antibacterial Activity (MIC)", "setting": "[10]", "result": 1.56, "unit": "µg/mL"}, {"measurement": "Antibacterial Activity (MIC)", "setting": "[11]", "result": 3.1, "unit": "µg/mL"}, {"measurement": "Antibacterial Activity (MIC)", "setting": "[12]", "result": 1, "unit": "µg/mL"}, {"measurement": "Antibacterial Activity (MIC)", "setting": "[13]", "result": 0.78, "unit": "µg/mL"}, {"measurement": "Antibacterial Activity (MIC)", "setting": "Candida albicans CCH 442", "result": "> 100", "unit": "µg/mL"}, {"measurement": "Antibacterial Activity (MIC)", "setting": "[14]", "result": 3.1, "unit": "µg/mL"}, {"measurement": "Antibacterial Activity (MIC)", "setting": "[15]", "result": 3.1, "unit": "µg/mL"}, {"measurement": "Antibacterial Activity (MIC)", "setting": "[16]", "result": 8, "unit": "µg/mL"}, {"measurement": "Antibacterial Activity (MIC)", "setting": "[17]", "result": 64, "unit": "µg/mL"}, {"measurement": "Antibacterial Activity (MIC)", "setting": "[18]", "result": "> 100", "unit": "µg/mL"}, {"measurement": "Antibacterial Activity (MIC)", "setting": "[19]", "result": 50, "unit": "µg/mL"}, {"measurement": "Antibacterial Activity (MIC)", "setting": "[20]", "result": 1.56, "unit": "µg/mL"}, {"measurement": "Antibacterial Activity (MIC)", "setting": "[21]", "result": 3.1, "unit": "µg/mL"}, {"measurement": "Antibacterial Activity (MIC)", "setting": "Escherichiacoli SS", "result": 6.2, "unit": "µg/mL"}, {"measurement": "Antibacterial Activity (MIC)", "setting": "[22]", "result": 6.2, "unit": "µg/mL"}, {"measurement": "Antibacterial Activity (MIC)", "setting": "Escherichiacoli DC-2", "result": "> 100", "unit": "µg/mL"}, {"measurement": "Antibacterial Activity (MIC)", "setting": "[23]", "result": "> 100", "unit": "µg/mL"}]}
